We go through 32 molecules from patent US7217722B2 (Kirin Beer Kabushiki Kaisha, priority 2000, dated 2007).

Counter-ions that a name gives are not always drawn.

For orientation: IC50 means the concentration at which inhibition is half-maximal.

For test [1], the system named is spontaneously hypertensive male rats (SHR). Briefly: Antihypertensive activity in spontaneously hypertensive rats. The note with it: Rattus norvegicus, po, 30 mg/kg oral, systolic pressure 3 to 4 hr after administration, mean ± SEM of 3 to 4 SHRs, read-out: Blood pressure depression, %. The class given is in vivo. On the procedure: This test was carried out as follows. A test compound was dissolved in purified water, or alternatively the test compound was suspended in a 5% aqueous sodium carboxymethylcellulose solution. The solution or the suspension was forcibly administered into the gaster of SHR through an oral probe. The systolic pressure of SHR was measured with a bloodless sphygmometer (BP-98A, Softron Co.) immediately before the administration of the test compound and 3 to 4 hr after the administration of the test compound or 6 to 7 hr after the administration of the test compound. The percentage of blood pressure depression was calculated by the following equation: Antihypertensive activity (%)={(blood pressure before administration of test compound−blood pressure after administration of test compound)/blood pressure before administration of test compound}×100
Each compound was administered at 30 mg/kg, and the antihypertensive activity (%) was expressed in terms of the mean value of 3 to 4 SHRs and SEM (standard error of the mean).
For data with *, the blood pressure was measured 6 to 7 hr after the administration of the test compound, and, for data with no marks, the blood pressure was measured 3 to 4 hr after the administration of the test compound.

Test [2] has as its system Human-derived histiocyte lymphoma (U937/CCR2). Briefly: Leukocyte migration inhibitory activity (MCP-1 induced migration, CHEMOTAXICELL). The class given is cell-based. The following applies: U937/CCR2, MCP-1, 1 hr. On the procedure: Human-derived histiocyte lymphoma (U937/CCR2), in which mouse-derived CCR2 had been highly expressed, was suspended in a 0.1% BSA-containing RPMI 1640 medium, to which a test compound had been added (5×10^6/ml), and the suspension was incubated for 20 min. A chemical solution (500 μl) (0.1% BSA-containing RPMI 1640 medium DMSO 1%), to which an MCP-1 ligand (1 μM) and the test compound had been added, was added to a 24-well plate. CHEMOTAXICELL was put thereon, and 200 μl of the cell suspension was added to the top layer, followed by migration under 5% carbon dioxide at 37° C. for one hr. The number of cells, which had migrated to the lower chamber, was counted with a particle count analyzer (CDA-500, SYSMEX CORPORATION), and the percentage migration inhibition was calculated by the following equation; Migration inhibition (%)={1−(number of migrated cells in the presence of test compound/number of migrated cells in the absence of test compound)}×100

In test [3] the target is Rho kinase (fused protein of bovine Rho kinase catalyst region and glutathione S-transferase) (Bos taurus, UniProt Q28021). The test can be described thus: Rho kinase inhibitory activity (phosphorylation of S6 231–239 substrate, γ32P-ATP). It is filed as biochemical. The following applies: concentration inhibiting substrate phosphorylation by 50%. On the procedure:
This permits the substrate to be labeled with the radioisotope.
Thereafter, the substrate was adsorbed to a filter paper. ATP was washed away with a phosphoric acid solution, and the amount of the phosphorylated substrate was then measured with a liquid scintillation counter.

Where [4] appears, read: Homo sapiens, U-937, 1 h, test compound 3 μM, read-out: Migration inhibition (%) ± SEM.
Where [5] appears, read: Homo sapiens, U-937, 1 h, test compound 30 μM, read-out: Migration inhibition (%) ± SEM.
The mark [6] stands for this setting: Homo sapiens, U-937, 1 h, test compound 1 μM, read-out: Migration inhibition (%) ± SEM.

Rho kinase (fused protein of bovine Rho kinase catalyst region and glutathione S-transferase), sequence (Q28021 92-354 limits assumed): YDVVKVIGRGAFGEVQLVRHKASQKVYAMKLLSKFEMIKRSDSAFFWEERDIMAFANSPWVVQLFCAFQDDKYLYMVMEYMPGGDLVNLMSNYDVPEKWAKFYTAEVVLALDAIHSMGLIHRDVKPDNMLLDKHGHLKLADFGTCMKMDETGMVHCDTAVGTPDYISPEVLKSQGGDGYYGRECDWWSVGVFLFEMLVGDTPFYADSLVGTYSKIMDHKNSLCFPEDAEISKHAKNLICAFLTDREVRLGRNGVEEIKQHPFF

As for `FCCCN1CCC(Nc2cccc3cnccc23)CC1` [Example 322, N-[1-(3-fluoropropyl)-4-piperidyl]-N-(5-isoquinolyl)amine], in test [1], the inhibition in vivo at 30 mg/kg is 41.4 ± 7.4%.
As to `c1cc2[nH]ncc2cc1NC1CCNCC1` [Example 128, N-(1H-5-indazolyl)-N-(4-piperidyl)amine], in test [2] (setting [4]), the inhibition at 3 µM was 2.9 ± 12.3%. Also, the inhibition at 30 µM in test [2] (setting [5]) stood at 45.9 ± 12.3%. Further, the IC50 in test [3] was found to be 287 nM.
As for `CC(NC(=O)Nc1ccc2c(c1)C(=O)NC2=O)c1ccc(Br)cc1` (stereo not drawn) [Example 20, N-[1-(4-bromophenyl)ethyl]-N′-(1,3-dioxo-2,3-dihydro-1H-5-isoindolyl)urea], the inhibition at 3 µM in test [2] (setting [4]) is 46.7 ± 19.4%. In addition, the inhibition at 30 µM in test [2] (setting [5]) stood at 95.4 ± 3.4%. In test [3], this molecule showed an IC50 of 110 nM.
In the case of `FCCN[C@H]1CC[C@H](Nc2ccc3[nH]ncc3c2)CC1` [Example 246 (anti), N1-(2-Fluoroethyl)-N4-(1H-5-indazolyl)-1,4-cyclohexanediamine], the inhibition in vivo at 30 mg/kg in test [1] worked out at 51.4 ± 0.9%.
Still for that read-out and setting: the same measure for `N[C@H]1CC[C@H](Nc2ccc3[nH]ncc3c2)CC1` [Example 248 (anti), N1-(1H-5-Indazolyl)-1,4-cyclohexanediamine]: 18.8 ± 8%; for `CCCN[C@H]1CC[C@@H](Nc2ccc3[nH]ncc3c2)CC1` [Example 243 (syn), N1-(1H-5-Indazolyl)-N4-propyl-1,4-cyclohexanediamine]: 26.4 ± 5%.
As for `CCCC(C)CN1CCCC(Nc2ccc3[nH]ncc3c2)C1` (stereo not drawn) [Example 281, N-(1H-5-indazolyl)-N-[1-(2-methylpentyl)-3-piperidyl]amine], in test [2] (setting [4]), the inhibition at 3 µM came out at 100 ± 8.2%.
As to `Fc1ccc(CN2CCCC(Nc3ccc4[nH]ncc4c3)C2)c(Cl)c1` (stereo not drawn) [Example 293, N-[1-(2-chloro-4-fluorobenzyl)-3-piperidyl]-N-(1H-5-indazolyl)amine], the inhibition at 3 µM in test [2] (setting [4]) came out at 93.5 ± 9.9%.
As to `Fc1cc(F)c(CN2CCCC(Nc3ccc4[nH]ncc4c3)C2)c(F)c1` (stereo not drawn) [Example 282, N-(1H-5-indazolyl)-N-[1-(2,4,6-trifluorobenzyl)-3-piperidyl]amine], the inhibition at 1 µM in test [2] (setting [6]) worked out at 29.9 ± 4.1%.
On to `Brc1ccc(CN2CCC(Nc3ccc4[nH]ncc4c3)CC2)cc1` [Example 22], for which the inhibition at 3 µM in test [2] (setting [4]) is 34.8 ± 12.4%. For the same molecule, the inhibition at 30 µM in test [2] (setting [5]) is 92.9 ± 1.3%.
Turning to `CCCN1CCC(Nc2ccc3[nH]ncc3c2)CC1` [Example 286, N-(1H-5-indazolyl)-N-(1-propyl-4-piperidyl)-amine], the inhibition in vivo at 30 mg/kg in test [1] was found to be 23.6 ± 8.6%.
`O=C(NCc1c(F)cccc1Cl)Nc1ccc2c(c1)C(=O)NC2=O` [Example 83, N-(2-chloro-6-fluorobenzyl)-N′-(1,3-dioxo-2,3-dihydro-1H-6-isoindolyl)urea]: the inhibition at 3 µM in test [2] (setting [4]) is 16.1 ± 9.6%. Besides, the inhibition at 30 µM in test [2] (setting [5]) worked out at 92.5 ± 3.3%. This molecule also registered an IC50 in test [3] of 60 nM.
Consider `O=C(NCc1c(F)cccc1Cl)Nc1ccc2[nH]ncc2c1` [Example 102, N-(2-chloro-6-fluorobenzyl)-N′-(1H-5-indazolyl)urea], for which the inhibition at 3 µM in test [2] (setting [4]) was determined as 6.8 ± 17%. In addition, in test [2] (setting [5]), the inhibition at 30 µM stood at 96.7 ± 1%. This molecule gave a concentration for half-maximal inhibition (IC50) in test [3] of 79 nM.
As to `FCCCN1CCC(Nc2ccc3[nH]ncc3c2)CC1` [Example 289, N-[1-(3-fluoropropyl)-4-piperidyl]-N-(1H-5-indazolyl)amine], in test [1], the inhibition in vivo at 30 mg/kg was 30.8 ± 5.7%.
Take `c1ccc(CN2CCC(Nc3ccc4[nH]ncc4c3)C2)cc1` (stereo not drawn) [Example 146.HCl, N-(1-Benzyltetrahydro-1H-pyrrolyl)-N-(1H-5-indazolyl)amine]: the “Migration inhibition (%) ± SEM” value worked out at 74.5 ± 1.7% in test [2] (test compound 3 μM, 3 µM) and 97.9 ± 1.0% in test [2] (test compound 30 μM, 30 µM).
Regarding `c1cc2[nH]ncc2cc1NC1CCN(CC2CC2)CC1` [Example 287, N-[1-(cyclopropylmethyl)-4-piperidyl]-N-(1H-5-indazolyl)amine], the inhibition in vivo at 30 mg/kg in test [1] was determined as 24.4 ± 6.8%.
Regarding `c1ccc(CCN[C@H]2CC[C@@H](Nc3ccc4[nH]ncc4c3)CC2)cc1` [259 (syn), N1-(1H-5-Indazolyl)-N4-phenylethyl-1,4-cyclohexanediamine], in test [2] (setting [4]), the inhibition at 3 µM was 85.3 ± 8.5%.
For `CCCN1CCC(Nc2cccc3cnccc23)CC1` [Example 318, N-(5-isoquinolyl)-N-(1-propyl-4-piperidyl)-amine], the inhibition in vivo at 30 mg/kg in test [1] amounted to 22.7 ± 5.1%.
As to `O=C(NCc1c(F)cccc1F)Nc1ccc2c(c1)C(=O)NC2=O` [Example 90, N-(2,6-difluorobenzyl)-N′-(1,3-dioxo-2,3-dihydro-1H-5-isoindolyl)urea], the inhibition at 30 µM in test [2] (setting [5]) is 78.3 ± 3.2%. In addition, in test [3], the IC50 was 69 nM.
Turning to `CCC(CC)CN1CCC(Nc2cccc3cnccc23)CC1` [Example 320, N-[1-(2-ethylbutyl)-4-piperidyl]-N-(5-isoquinolyl)amine], the inhibition at 1 µM in test [2] (setting [6]) was 82.9 ± 7%.
Take `c1ccc(CN2CCC(Nc3ccc4[nH]ncc4c3)C2)cc1` (stereo not drawn) [Example 146, N-(1-benzyltetrahydro-1H-pyrrolyl)-N-(1H-5-indazolyl)amine]: the inhibition at 3 µM in test [2] (setting [4]) was found to be 45.6 ± 9.5%. Further, the inhibition at 30 µM in test [2] (setting [5]) came out at 93.9 ± 1.7%. The same molecule showed an IC50 in test [3] of 32 nM.
In the case of `FCCN[C@H]1CC[C@@H](Nc2ccc3[nH]ncc3c2)CC1` [Example 246 (syn), N1-(2-Fluoroethyl)-N4-(1H-5-indazolyl)-1,4-cyclohexanediamine], in test [1], the inhibition in vivo at 30 mg/kg is 37.2 ± 11.7%.
With `FCCN[C@H]1CC[C@H](Nc2cccc3cnccc23)CC1` [Example 261 (anti), N1-(2-Fluoroethyl)-N4-(5-isoquinolyl)-1,4-cyclohexanediamine], the inhibition in vivo at 30 mg/kg in test [1] came out at 47.3 ± 3.6%.
For `O=C(NCc1c(F)cccc1F)Nc1ccc2[nH]ncc2c1` [Example 95, N-(2,6-difluorobenzyl)-N′-(1H-5-indazolyl)urea], in test [2] (setting [4]), the inhibition at 3 µM turned out to be 17.1 ± 11.7%. The inhibition at 30 µM in test [2] (setting [5]) was 77.6 ± 6.4%. Also, it took 85 nM to reach half-maximal inhibition in test [3] (IC50).
On to `c1cc(NC2CCC(NC3CC3)CC2)c2ccncc2c1` (stereo not drawn) [262 (syn), N1-Cyclopropyl-N4-(5-isoquinolyl)-1,4-cyclohexanediamine], for which the “Migration inhibition (%) ± SEM” value in test [2] (test compound 1 μM, 1 µM) is reported as 69.9 ± 15.1%.
On to `FC(F)(F)CCCN1CCCC(Nc2cccc3cnccc23)C1` (stereo not drawn) [Example 273, N-(5-isoquinolyl)-N-[1-(4,4,4-trifluorobutyl)-3-piperidyl]amine], for which, in test [1], the inhibition in vivo at 30 mg/kg is 30.4 ± 7.3%.
Same read-out and setting: the same measure for `FC(F)(F)CCN1CCC(Nc2ccc3[nH]ncc3c2)CC1` [Example 290, N-(1H-5-indazolyl)-N-[1-(3,3,3-trifluoropropyl)-4-piperidyl]amine]: 17.2 ± 2.9%.
Consider `CC(C)C(c1ccccc1)N1CCCC(Nc2ccc3[nH]ncc3c2)C1` (stereo not drawn) [Example 240, N-(1H-5-indazolyl)-N-[1-(2-methyl-1-phenyl-propyl)-3-piperidyl]amine], for which the inhibition in vivo at 30 mg/kg in test [1] stood at 21.1 ± 6.5%.
As to `O=C(NCc1c(Cl)cccc1Cl)Nc1ccncc1` [Example 80, N-(2,6-dichlorobenzyl)-N′-(4-pyridyl)urea], the inhibition at 3 µM in test [2] (setting [4]) came to 26 ± 4.7%. Further, the inhibition at 30 µM in test [2] (setting [5]) amounted to 65.1 ± 17.3%. The same molecule came in with an IC50 in test [3] of 770 nM.
For `Cl.c1ccc(CN2CCCC(Nc3ccc4[nH]ncc4c3)C2)cc1` (stereo not drawn) [Example 21.HCl, N-(1-Benzyl-3-piperidyl)-N(1H-5-indazolyl)amine], the “Migration inhibition (%) ± SEM” value in test [2] (test compound 3 μM) was 83.5 ± 3.3%; in test [2] (test compound 30 μM), 99.1 ± 0.4%.
For the molecule `COC(=O)C(c1ccccc1)N1CCCC(Nc2ccc3[nH]ncc3c2)C1` (stereo not drawn) [Example 221, methyl 2-[3-(1H-5-indazolylamino)piperidino]-2-phenylacetate], the inhibition at 0.03 µM in test [2] (Homo sapiens, U-937, 1 h, test compound 0.03 μM, read-out: Migration inhibition (%) ± SEM) worked out at 27.5 ± 33.6%. The inhibition at 0.3 µM in test [2] (Homo sapiens, U-937, 1 h, test compound 0.3 μM, read-out: Migration inhibition (%) ± SEM) was 90.8 ± 11%.
`c1cc2[nH]ncc2cc1N[C@H]1CC[C@@H](NC2CC2)CC1` [Example 247 (syn), N1-Cyclopropyl-N4-(1H-5-indazolyl)-1,4-cyclohexanediamine]: in test [1], the inhibition in vivo at 30 mg/kg is 43.3 ± 1.2%.
